Experimental data: patent US20160122312A1, “ANTI-VIRAL COMPOUNDS, PHARMACEUTICAL COMPOSITIONS AND METHODS OF USE THEREOF” (KINETA, INC., priority 2013, published 2016)

What was measured:
hCMV AD169 strain = test: hCMV focus-forming assay in human foreskin fibroblasts; assay type: cell-based, human cytomegalovirus; conditions: FIGS. 5A, 5B
DNV type 2 strain = test: DNV focus-forming assay in Huh7 cells; assay type: cell-based, Dengue virus; conditions: for IC50: Dengue virus, Huh-7, Huh7 cells, treatment after infection, 48 hours replication; for viral infection of Huh7 cells (decrease in foci, dose dependence): FIG. 4B
[1] = tested on: influenza virus A/Udorn/72 H3N2 strain; test: influenza focus-forming assay in 293 cells; assay type: cell-based; conditions: for viral infection of 293 cells (decrease in foci, dose dependence): FIGS. 3A, 3B; for IC50: HEK293, 24 h, read-out: Flu IC50; for antiviral activity compared with KIN101 (viral titer): FIG. 3A
Murine EMCV = test: EMCV in vitro antiviral assay, Huh7 cell viability by MTS; assay type: cell-based, encephalomyocarditis virus; conditions: Huh7 cells; for Cell viability post-infection: 5 hours before EMCV, MTS 18 hours after infection
Protocol: In an encephalomyocarditis virus (EMCV) in vitro antiviral assay, Huh7 cells were grown under normal growth conditions and treated with the indicated amount of KIN101 in media containing 0.5% DMSO. The cells were grown in the presence of compound for 5 hours and then infected with 250 pfu Murine EMCV obtained from ATCC #VR-129B. Infected cells were grown for an additional 18 hours and then cell viability was measured using an MTS assay. Negative control cells were treated with buffer alone containing 0.5% DMSO. Interferon treatment was used as a positive control for virus inhibition and was added similar to compound treatments at a final concentration of 10 IU/mL Interferon-α: Intron A, from Schering-Plough. Cell viability was measured using an MTS assay, CellTiter 96® AQueous One Solution Cell Proliferation Assay (MTS), from Promega #G3580. […]

RSV A2 Long strain = test: RSV antiviral assay in HeLa cells; assay type: cell-based, respiratory syncytial virus; conditions: 48 hours post infection, FIG. 2B
[2] = tested on: interferon-stimulated gene (ISG) induction; test: preliminary screen of natural product library for ISG induction; assay type: cell-based; conditions: preliminary screen of NCI natural product library
Text: The compounds disclosed herein are described as isoflavone compounds. Isoflavones are best known as natural products isolated from the Leguminosae (legume) family and are usually polyhydroxylated and pharmacologically active as phytoestrogenics and antioxidants. The most recognizable member of this class is genistein, which has been reported to have anticancer activities and to induce thymic and immune changes in mammals (Banerjee, S., et al. (2008) Multi-targeted therapy of cancer by genistein, Cancer Lett 269, 226-242).

Compound	IC50 (DNV type 2 strain)	IC50 [1]	further results
CC(C)(C)c1ccc(-c2coc3cc(OCCN4CCN(S(C)(=O)=O)CC4)ccc3c2=O)cc1 [KIN395]	1970 nM	57 nM	hCMV as measured by foci (FFU/mL), dose dependence (hCMV AD169 strain): dose-dependent decreases in hCMV; viral infection of 293 cells (decrease in foci, dose dependence) [1]: dose-dependent decreases in viral infection
O=C(COc1ccc2c(=O)c(-c3ccc(OC(F)(F)F)cc3)coc2c1)N1CCOCC1 [KIN290]	3100 nM	1530 nM	
C#CCOc1ccc2c(=O)c(-c3ccc(C(C)(C)C)cc3)coc2c1 [KIN328]	1340 nM	286 nM	hCMV as measured by foci (FFU/mL), dose dependence (hCMV AD169 strain): dose-dependent decreases in hCMV; viral infection of Huh7 cells (decrease in foci, dose dependence) (DNV type 2 strain): dose-dependent decreases in viral infection; viral infection of 293 cells (decrease in foci, dose dependence) [1]: dose-dependent decreases in viral infection
CS(=O)(=O)Oc1ccc2c(=O)c(-c3ccc(OCC(F)(F)F)cc3)coc2c1 [KIN376]	5000 nM	103 nM	hCMV as measured by foci (FFU/mL), dose dependence (hCMV AD169 strain): dose-dependent decreases in hCMV; viral infection of Huh7 cells (decrease in foci, dose dependence) (DNV type 2 strain): dose-dependent decreases in viral infection; viral infection of 293 cells (decrease in foci, dose dependence) [1]: dose-dependent decreases in viral infection
CC(C)(C)c1ccc(-c2coc3cc(OCCO)ccc3c2=O)cc1 [KIN851]	1190 nM	417 nM	
CC(=O)N1CCN(CCOc2ccc3c(=O)c(-c4ccc(C(C)(C)C)cc4)coc3c2)CC1 [KIN394]	940 nM	70 nM	hCMV as measured by foci (FFU/mL), dose dependence (hCMV AD169 strain): dose-dependent decreases in hCMV; viral infection of 293 cells (decrease in foci, dose dependence) [1]: dose-dependent decreases in viral infection
CS(=O)(=O)Oc1ccc2c(=O)c(-c3ccc(OCC4CCCOC4)cc3)coc2c1 (stereo not shown) [KIN850]	1350 nM	2 nM	
CS(=O)(=O)Oc1ccc2c(=O)c(-c3ccc(NS(=O)(=O)N4CCCCC4)cc3)coc2c1 [KIN308]	4160 nM	108 nM	antiviral activity compared with KIN101 (viral titer) [1]: improved on this antiviral activity
CC(C)(C)c1ccc(-c2coc3cc(OCC(=O)N4CCOCC4)ccc3c2=O)cc1 [KIN306]	2810 nM	880 nM	antiviral activity compared with KIN101 (viral titer) [1]: improved on this antiviral activity
CN(c1ccc2c(=O)c(-c3ccc(OCC4CC4)cc3)coc2c1)S(C)(=O)=O [KIN865]	176 nM	234 nM	
CNCCOc1ccc2c(=O)c(-c3ccc(C(C)(C)C)cc3)coc2c1 [KIN861]	> 5000 nM	405 nM	
O=c1c(-c2ccc(OC(F)(F)F)cc2)coc2cc(OCCN3CCOCC3)ccc12 [KIN824]	217 nM	76 nM	
CS(=O)(=O)Oc1ccc2c(=O)c(-c3ccc(OC(F)F)cc3)coc2c1 [KIN378]	> 5000 nM	600 nM	
CS(=O)(=O)Oc1ccc2c(=O)c(-c3cccc4ccccc34)coc2c1 [KIN267]			antiviral activity compared with KIN101 (viral titer) [1]: improved on this antiviral activity
CN(c1ccc2c(=O)c(-c3ccc(OCCC(C)(C)C)cc3)coc2c1)S(C)(=O)=O [KIN882]	216 nM	30 nM	
CC(C)(C)COc1ccc(-c2coc3cc(OS(C)(=O)=O)ccc3c2=O)cc1 [KIN372]	1690 nM	37 nM	hCMV as measured by foci (FFU/mL), dose dependence (hCMV AD169 strain): dose-dependent decreases in hCMV; viral infection of Huh7 cells (decrease in foci, dose dependence) (DNV type 2 strain): dose-dependent decreases in viral infection; viral infection of 293 cells (decrease in foci, dose dependence) [1]: dose-dependent decreases in viral infection
CS(=O)(=O)Oc1ccc2c(=O)c(-c3ccc(OCC4CCOCC4)cc3)coc2c1 [KIN389]	> 5000 nM	200 nM	
CC(C)(C)c1ccc(-c2coc3cc(OCCN4CCOCC4)ccc3c2=O)cc1 [KIN392]	650 nM	9 nM	hCMV as measured by foci (FFU/mL), dose dependence (hCMV AD169 strain): dose-dependent decreases in hCMV; viral infection of 293 cells (decrease in foci, dose dependence) [1]: dose-dependent decreases in viral infection
CN1CCN(CCOc2ccc3c(=O)c(-c4ccc(OC(F)(F)F)cc4)coc3c2)CC1 [KIN823]	371 nM	153 nM	

Compound	IC50 (DNV type 2 strain)	IC50 [1]	further results
CC(=O)N1CCN(CCOc2ccc3c(=O)c(-c4ccc(Br)cc4)coc3c2)CC1 [KIN844]	316 nM	2 nM	
O=c1c(-c2ccc(OC(F)(F)F)cc2)coc2cc(OC(F)F)ccc12 [KIN299]	> 5000 nM	709 nM	viral infection of 293 cells (decrease in foci, dose dependence) [1]: dose-dependent decreases in viral infection
CS(=O)(=O)Oc1ccc2c(=O)c(-c3ccc(OCC4CC4)cc3)coc2c1 [KIN371]	> 5000 nM	156 nM	viral infection of 293 cells (decrease in foci, dose dependence) [1]: dose-dependent decreases in viral infection
CS(=O)(=O)Oc1ccc2c(=O)c(-c3ccc(OC(F)(F)F)cc3)coc2c1 [KIN134]	3970 nM	450 nM	hCMV as measured by foci (FFU/mL), dose dependence (hCMV AD169 strain): dose-dependent decreases in hCMV; viral infection of Huh7 cells (decrease in foci, dose dependence) (DNV type 2 strain): dose-dependent decreases in viral infection; antiviral activity compared with KIN101 (viral titer) [1]: improved on this antiviral activity
CC(C)(C)c1ccc(-c2coc3cc(OS(C)(=O)=O)ccc3c2=O)cc1 [KIN269]	542 nM	145 nM	
CN(c1ccc(-c2coc3cc(OS(C)(=O)=O)ccc3c2=O)cc1)S(C)(=O)=O [KIN291]			antiviral activity compared with KIN101 (viral titer) [1]: improved on this antiviral activity
CS(=O)(=O)Oc1ccc2c(=O)c(C3CCCC3)coc2c1 [KIN282]			antiviral activity compared with KIN101 (viral titer) [1]: improved on this antiviral activity
CCN(c1ccc2c(=O)c(-c3ccc(C(C)(C)C)cc3)coc2c1)S(C)(=O)=O [KIN866]	507 nM	27 nM	
CS(=O)(=O)Oc1ccc2c(=O)c(-c3ccc(Br)cc3)coc2c1 [KIN101]	> 5000 nM	2000 nM	Cell viability post-infection (Murine EMCV; 5 units added): ~0.7; Cell viability post-infection (Murine EMCV; 10 units added): ~1.2; Cell viability post-infection (Murine EMCV; 20 units added): ~1.45; cell viability following infection with EMCV (in words) (Murine EMCV): protective of cell viability; viral infection of Huh7 cells (decrease in foci, dose dependence) (DNV type 2 strain): dose-dependent decreases in viral infection; viral protein in cells infected with DNV (DNV type 2 strain; increasing amounts of compound, FIG. 4A): dose-dependent decrease in viral protein; RSV viral RNA (RSV A2 Long strain): decreased RSV viral RNA; viral infection of 293 cells (decrease in foci, dose dependence) [1]: dose-dependent decreases in viral infection
CN1CCN(CCOc2ccc3c(=O)c(-c4ccc(C(C)(C)C)cc4)coc3c2)CC1 [KIN807]	130 nM	143 nM	
CC(=O)N1CCN(CCOc2ccc3c(=O)c(-c4ccc(OC(F)(F)F)cc4)coc3c2)CC1 [KIN814]	187 nM	62 nM	
CS(=O)(=O)Oc1ccc2c(=O)c(-c3ccc(C(F)(F)F)cc3)coc2c1 [KIN263]	1390 nM	800 nM	antiviral activity compared with KIN101 (viral titer) [1]: improved on this antiviral activity
O=c1c(-c2ccc(O)cc2)coc2cc(O)cc(O)c12 [genistein]			interferon-stimulated gene (ISG) induction, screen outcome [2]: validated hit
CN(c1ccc2c(=O)c(-c3ccc(OCC(C)(C)C)cc3)coc2c1)S(C)(=O)=O [KIN867]	304 nM	7 nM	
CS(=O)(=O)N1CCN(CCOc2ccc3c(=O)c(-c4ccc(OC(F)(F)F)cc4)coc3c2)CC1 [KIN826]	196 nM	14 nM	
CN(c1ccc2c(=O)c(-c3ccc(C(C)(C)C)cc3)coc2c1)S(C)(=O)=O [KIN385]	293 nM	9 nM	hCMV as measured by foci (FFU/mL), dose dependence (hCMV AD169 strain): dose-dependent decreases in hCMV; viral infection of Huh7 cells (decrease in foci, dose dependence) (DNV type 2 strain): dose-dependent decreases in viral infection; viral infection of 293 cells (decrease in foci, dose dependence) [1]: dose-dependent decreases in viral infection
O=C(COc1ccc2c(=O)c(-c3ccc(Br)cc3)coc2c1)N1CCOCC1 [KIN238]	1180 nM	1200 nM	
CS(=O)(=O)N1CCN(CCOc2ccc3c(=O)c(-c4ccc(Br)cc4)coc3c2)CC1 [KIN848]	258 nM	4 nM	
CN(c1ccc2c(=O)c(-c3ccc(OCC(F)(F)F)cc3)coc2c1)S(C)(=O)=O [KIN857]	182 nM	65 nM	
